Here are results for six compounds from PubChem BioAssay (NCI).

The structures appear in SMILES notation.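 1) Cells in 96-well plates. 2) Compound, 48 h, 5 concentrations. 3) Linear interpolation between surrounding doses. 4) Unreached endpoint = highest concentration. At the TGI there is no net growth.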

Some test systems named below: NCI-H460 lung; SW-620 colon; HOP-92 NSCLC; OVCAR-4 ovarian; HT29 colon; HCT-116 colon; SF-539 CNS; SNB-19 CNS; SN12C renal; SK-MEL-2 melanoma; OVCAR-5 ovarian; NCI-H23 lung; SR leukemia; A498 renal; A549 NSCLC; NCI-H522 lung; RPMI-8226 leukemia; OVCAR-3 ovarian; SNB-75 CNS.
What all share (assay): DTP human tumour cell line panel, 48 h

A word on the TGI: it is the concentration giving total growth inhibition. Read a high TGI as lower sensitivity of the cells. In the case of `Cc1cc(C)n2nc3nc(N)c(C#N)c(-c4ccccc4)c3c2n1`, the TGI in the experiment with NCI-H460 lung, in the experiment with SW-620 colon, in the experiment on HOP-92 NSCLC, in the experiment with OVCAR-4 ovarian, with HT29 colon and in the experiment with HCT-116 colon was over 100 µM each time. Also, the TGI in the experiment with SF-539 CNS, in the experiment with SNB-19 CNS, in the experiment with SN12C renal, in the experiment on SK-MEL-2 melanoma, in the experiment with OVCAR-5 ovarian and in the experiment with NCI-H23 lung was over 100 µM in each case. In addition, the TGI with SR leukemia, in the experiment with A498 renal, in the experiment on A549 NSCLC, with NCI-H522 lung, in the experiment with RPMI-8226 leukemia and in the experiment on OVCAR-3 ovarian was over 100 µM each time.
In the case of `COc1cc(C2SCC(=O)N2c2ccccn2)cc(OC)c1OC` (stereo not drawn), the TGI is over 100 µM in the experiment on NCI-H460 lung; over 100 µM in the experiment with SW-620 colon; 89.2 µM in the experiment with HOP-92 NSCLC; over 100 µM in the experiment on OVCAR-4 ovarian; over 100 µM in the experiment with HT29 colon; over 100 µM in the experiment with HCT-116 colon. Also, the TGI in the experiment with SF-539 CNS, with SNB-19 CNS, in the experiment with SN12C renal, in the experiment on SK-MEL-2 melanoma, in the experiment with OVCAR-5 ovarian and in the experiment with NCI-H23 lung was over 100 µM each time. The TGI with SR leukemia, in the experiment with A498 renal, in the experiment with A549 NSCLC, with NCI-H522 lung, in the experiment on RPMI-8226 leukemia and in the experiment with OVCAR-3 ovarian was over 100 µM each time.
`CN(CC(=O)O)c1ncc2c(n1)-c1ccccc1SC2`: the TGI with NCI-H460 lung, in the experiment on SW-620 colon, in the experiment with HOP-92 NSCLC, in the experiment on OVCAR-4 ovarian, in the experiment on HT29 colon and with HCT-116 colon was over 100 µM in each case. Moreover, the TGI with SF-539 CNS, in the experiment on SNB-19 CNS, in the experiment on SN12C renal, in the experiment with SK-MEL-2 melanoma, with OVCAR-5 ovarian and in the experiment on NCI-H23 lung was over 100 µM in each case. In addition, the TGI with SR leukemia, with A498 renal, with A549 NSCLC, with NCI-H522 lung, with SNB-75 CNS and with RPMI-8226 leukemia was over 100 µM in each case.
On to `CCCCN(CCCC)CC(O)c1cc(-c2ccc(C(F)(F)F)cc2)nc(-c2ccc(C(F)(F)F)cc2)c1` (stereo not drawn), for which the TGI in the experiment with NCI-H460 lung, in the experiment on SW-620 colon, in the experiment on HOP-92 NSCLC, in the experiment with OVCAR-4 ovarian, in the experiment on HT29 colon and with HCT-116 colon was over 100 µM in each case. The TGI in the experiment with SF-539 CNS, in the experiment with SNB-19 CNS, in the experiment on SN12C renal, in the experiment on SK-MEL-2 melanoma, in the experiment with OVCAR-5 ovarian and in the experiment with NCI-H23 lung was over 100 µM throughout. In addition, the TGI in the experiment on SR leukemia, in the experiment on A498 renal, in the experiment with NCI-H522 lung, in the experiment with SNB-75 CNS, in the experiment on RPMI-8226 leukemia and in the experiment with OVCAR-3 ovarian was over 100 µM each time.
Consider `CCOC(=O)C1=C(C)N(Cc2ccc(Cl)cc2Cl)C2(O)C=CC(=O)C3C(=O)N(c4ccccc4)C(=O)C132` (stereo not drawn), for which the TGI is 5.77 µM in the experiment on NCI-H460 lung; 5.97 µM with SW-620 colon; 4.09 µM in the experiment with HOP-92 NSCLC; 4.2 µM with OVCAR-4 ovarian; 3.5 µM in the experiment with HT29 colon; over 100 µM in the experiment on HCT-116 colon. The TGI in the experiment with SF-539 CNS worked out at 5.38 µM; in the experiment with SNB-19 CNS, 3.73 µM; in the experiment on SN12C renal it was 4.93 µM; in the experiment on SK-MEL-2 melanoma, 4.27 µM; in the experiment with OVCAR-5 ovarian, 22.3 µM; with NCI-H23 lung, 3.53 µM. In addition, the TGI in the experiment with SR leukemia turned out to be 2.23 µM; in the experiment on A498 renal it was 16.9 µM; in the experiment on A549 NSCLC it was 5.74 µM; in the experiment on NCI-H522 lung it was 3.64 µM; in the experiment on RPMI-8226 leukemia, 2.18 µM; in the experiment with OVCAR-3 ovarian, 3.44 µM.
With `COc1ccc(N2C(=O)C(=O)N(c3ccccc3[N+](=O)[O-])C2=S)cc1`, the TGI in the experiment on NCI-H460 lung was over 100 µM; in the experiment with SW-620 colon, over 100 µM; with HOP-92 NSCLC it was 57.4 µM; with OVCAR-4 ovarian, 58.5 µM; in the experiment with HT29 colon, over 100 µM; in the experiment with HCT-116 colon it was over 100 µM. Further, the TGI in the experiment with SF-539 CNS was 88.3 µM; in the experiment on SNB-19 CNS it was over 100 µM; in the experiment with SN12C renal it was over 100 µM; in the experiment with SK-MEL-2 melanoma it was 46 µM; in the experiment on OVCAR-5 ovarian, 63.4 µM; in the experiment with NCI-H23 lung, 53.5 µM. For the same compound, the TGI with SR leukemia is over 100 µM; with A498 renal it was 77.5 µM; in the experiment on A549 NSCLC, over 100 µM; in the experiment on NCI-H522 lung, 24.4 µM; in the experiment on SNB-75 CNS, over 100 µM; in the experiment on RPMI-8226 leukemia it was 94.2 µM.
